In patent EP0973746B1, “SUBSTITUTED 3-CYANO QUINOLINES” (Wyeth Holdings Corporation, priority 1997, dated 1998):
In brackets after ≈: the same amount, converted by molar mass. Read-outs that look alike come from different tables or passages of the source.

Columns and labels:
A431 [1] = experiment: Inhibition of cell growth by incorporation of [3H]-thymidine, A431; type: cell-based, human; details: Homo sapiens, A-431; [3H]-thymidine incorporation; A431; read-out: IC50 A431
NEU-3T3 = experiment: Inhibition of cell growth by incorporation of [3H]-thymidine, Neu-3T3; type: cell-based, mouse; details: Mus musculus, [3H]-thymidine incorporation
Experimental: (§1) Representative compounds of this invention were evaluated for their ability to inhibit the growth of the cell lines described below in vitro. The inhibition is quantitated by measuring the decrease in the incorporation of radio-labeled thymidine when the cells are grown in the presence of the inhibitor. […] Cells were routinely grown in a humidified incubator in 5% CO2 in air.
(§2) Cells were seeded at 10,000 cells/well in 96 well plates in complete media and allowed to grow to log phase. At this stage the complete media was replaced with media containing 0.5% FBS (for cells growing in 10% FBS) or media lacking epidermal growth factor (EGF) (for cells growing in serum free media). […] Media with test compound was then removed and complete media was added back. The cells were allowed to grow for 18 hours. This is followed by incubation in [^3H]thymidine (1mCi/ml in serum/EGF media) for 4 hours. Cells were lysed in 0.5 M NaOH for at least 30 min at 37°C and radioactivity analyzed.
(§3) The % inhibition of the compound evaluated was determined for at least three different concentrations and the IC50 value evaluated from the dose response curve. […] CPM(control) is in units of counts per minute and is a number expressing the amount of [^3H]thymidine incorporated onto the DNA when cells are grown in the absence of test compound as measured by liquid scintillation counting.

NHEK = experiment: Inhibition of cell growth by incorporation of [3H]-thymidine, NHEK; type: cell-based, human; details: Homo sapiens, [3H]-thymidine incorporation, read-out: IC50 NHEK
SKBR3 [2] = experiment: Inhibition of cell growth by incorporation of [3H]-thymidine, SKBR3; type: cell-based, human; details: Homo sapiens, SK-BR-3, [3H]-thymidine incorporation
Experimental: as §1, §2, §3

HTB161 = experiment: Inhibition of cancer cell growth as measured by cell number, HTB161; type: cell-based; details: Homo sapiens; cell number, Sulforhodamine B, 48 hours exposure; Table 4; read-out: IC50 HTB161
A27805 = experiment: Inhibition of cancer cell growth as measured by cell number, A27805; type: cell-based; details: Homo sapiens; cell number, Sulforhodamine B, 48 hours exposure; Table 4; read-out: IC50 A27805
A2780DDP = experiment: Inhibition of cancer cell growth as measured by cell number, A2780DDP; type: cell-based; details: Homo sapiens; cell number, Sulforhodamine B, 48 hours exposure; Table 4; read-out: IC50 A2780DDP
MIP = experiment: Inhibition of cancer cell growth as measured by cell number, MIP; type: cell-based; details: Homo sapiens; cell number, Sulforhodamine B, 48 hours exposure; Table 4; read-out: IC50 MIP
SW620 = experiment: Inhibition of cancer cell growth as measured by cell number, SW620; type: cell-based, human; details: Homo sapiens, SW-620, 48 h, cell number, Sulforhodamine B, 48 hours exposure, read-out: IC50 SW620;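 note: SW620 was included as a cell line with little or no EGFR or HER2/neu expression, in contrast to receptor-overexpressing lines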
Text: (§4) The cell lines were chosen since they overexpressed epidermal growth factor receptor (EGFR) (i.e. A431) or HER2/neu (SKBR3), or had little to no expression of the these receptors (SW620, LOX, MCF7).

COLO205 = experiment: Inhibition of cancer cell growth as measured by cell number, COLO205; type: cell-based; details: Homo sapiens, COLO 205; cell number, Sulforhodamine B, 48 hours exposure; Table 4; read-out: IC50 COLO205
CX1 = experiment: Inhibition of cancer cell growth as measured by cell number, CX1; type: cell-based; details: Homo sapiens, CX-1; cell number, Sulforhodamine B, 48 hours exposure; Table 4; read-out: IC50 CX1
CACO2 = experiment: Inhibition of cancer cell growth as measured by cell number, CACO2; type: cell-based; details: Homo sapiens, Caco-2; cell number, Sulforhodamine B, 48 hours exposure; Table 5; read-out: IC50 CACO2
HCT15 = experiment: Inhibition of cancer cell growth as measured by cell number, HCT15; type: cell-based; details: Homo sapiens, HCT-15; cell number, Sulforhodamine B, 48 hours exposure; Table 5; read-out: IC50 HCT15
LS174T = experiment: Inhibition of cancer cell growth as measured by cell number, LS174T; type: cell-based; details: Homo sapiens, cell number, Sulforhodamine B, 48 hours exposure, Table 5, read-out: IC50 LS174T
SW948 = experiment: Inhibition of cancer cell growth as measured by cell number, SW948; type: cell-based; details: Homo sapiens, SW948; cell number, Sulforhodamine B, 48 hours exposure; Table 5; read-out: IC50 SW948
CCL228 = experiment: Inhibition of cancer cell growth as measured by cell number, CCL228; type: cell-based; details: Homo sapiens; cell number, Sulforhodamine B, 48 hours exposure; Table 5; read-out: IC50 CCL228
B7474 = experiment: Inhibition of cancer cell growth as measured by cell number, B7474; type: cell-based; details: Homo sapiens; cell number, Sulforhodamine B, 48 hours exposure; Table 6; read-out: IC50 B7474
T47D = experiment: Inhibition of cancer cell growth as measured by cell number, T47D; type: cell-based; details: Homo sapiens, cell number, Sulforhodamine B, 48 hours exposure, Table 6, read-out: IC50 T47D
LX1 = experiment: Inhibition of cancer cell growth as measured by cell number, LX1; type: cell-based; details: Homo sapiens, LX-1; cell number, Sulforhodamine B, 48 hours exposure; Table 6; read-out: IC50 LX1
A549 = experiment: Inhibition of cancer cell growth as measured by cell number, A549; type: cell-based; details: Homo sapiens, A549; cell number, Sulforhodamine B, 48 hours exposure; Table 6; read-out: IC50 A549
LOX = experiment: Inhibition of cancer cell growth as measured by cell number, LOX; type: cell-based, human; details: Homo sapiens, LOX, 48 h, cell number, Sulforhodamine B, 48 hours exposure, read-out: IC50 LOX;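 note: LOX cells served as a line with low or absent EGFR and HER2/neu expression, in contrast to receptor-overexpressing lines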
Text: as §4

A431 [3] = experiment: Inhibition of cancer cell growth as measured by cell number, A431; type: cell-based, human; details: Homo sapiens, A-431, 48 h, cell number, Sulforhodamine B, 48 hours exposure, read-out: IC50 A431;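 note: human A431 line, picked because it overexpresses epidermal growth factor receptor (EGFR)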
Text: as §4

NEC = experiment: Inhibition of cancer cell growth as measured by cell number, NEC; type: cell-based; details: Homo sapiens; cell number, Sulforhodamine B, 48 hours exposure; Table 6; read-out: IC50 NEC
DU145 = experiment: Inhibition of cancer cell growth as measured by cell number, DU145; type: cell-based; details: Homo sapiens, DU-145; cell number, Sulforhodamine B, 48 hours exposure; Table 7; read-out: IC50 DU145
PC3 = experiment: Inhibition of cancer cell growth as measured by cell number, PC3; type: cell-based; details: Homo sapiens, PC-3; cell number, Sulforhodamine B, 48 hours exposure; Table 7; read-out: IC50 PC3
LNCAP = experiment: Inhibition of cancer cell growth as measured by cell number, LNCAP; type: cell-based; details: Homo sapiens, cell number, Sulforhodamine B, 48 hours exposure, Table 7, read-out: IC50 LNCAP
HL60 = experiment: Inhibition of cancer cell growth as measured by cell number, HL60; type: cell-based; details: Homo sapiens, HL-60; cell number, Sulforhodamine B, 48 hours exposure; Table 7; read-out: IC50 HL60
CCRF-CFM = experiment: Inhibition of cancer cell growth as measured by cell number, CCRF-CFM; type: cell-based; details: Homo sapiens; cell number, Sulforhodamine B, 48 hours exposure; Table 7; read-out: IC50 CCRF-CFM
[4] = target: epidermal growth factor receptor kinase (Homo sapiens, UniProt P00533); experiment: biochemical
MCF7 = experiment: Inhibition of cancer cell growth as measured by cell number, MCF7; type: cell-based, human; details: Homo sapiens, MCF7, 48 h, cell number, Sulforhodamine B, 48 hours exposure, read-out: IC50 MCF7;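 note: MCF7 was included as a line with little or no EGFR or HER2/neu expression, in contrast to the receptor-overexpressing lines of the panel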
Text: as §4

SKBR3 [5] = experiment: Inhibition of cancer cell growth as measured by cell number, SKBR3; type: cell-based, human; details: Homo sapiens, SK-BR-3; cell number, Sulforhodamine B, 48 hours exposure; Table 8; read-out: IC50 SKBR3;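 note: SK-BR-3 cells were selected as a line overexpressing HER2/neu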
Text: as §4

Sequence of epidermal growth factor receptor kinase (P00533 25-1210): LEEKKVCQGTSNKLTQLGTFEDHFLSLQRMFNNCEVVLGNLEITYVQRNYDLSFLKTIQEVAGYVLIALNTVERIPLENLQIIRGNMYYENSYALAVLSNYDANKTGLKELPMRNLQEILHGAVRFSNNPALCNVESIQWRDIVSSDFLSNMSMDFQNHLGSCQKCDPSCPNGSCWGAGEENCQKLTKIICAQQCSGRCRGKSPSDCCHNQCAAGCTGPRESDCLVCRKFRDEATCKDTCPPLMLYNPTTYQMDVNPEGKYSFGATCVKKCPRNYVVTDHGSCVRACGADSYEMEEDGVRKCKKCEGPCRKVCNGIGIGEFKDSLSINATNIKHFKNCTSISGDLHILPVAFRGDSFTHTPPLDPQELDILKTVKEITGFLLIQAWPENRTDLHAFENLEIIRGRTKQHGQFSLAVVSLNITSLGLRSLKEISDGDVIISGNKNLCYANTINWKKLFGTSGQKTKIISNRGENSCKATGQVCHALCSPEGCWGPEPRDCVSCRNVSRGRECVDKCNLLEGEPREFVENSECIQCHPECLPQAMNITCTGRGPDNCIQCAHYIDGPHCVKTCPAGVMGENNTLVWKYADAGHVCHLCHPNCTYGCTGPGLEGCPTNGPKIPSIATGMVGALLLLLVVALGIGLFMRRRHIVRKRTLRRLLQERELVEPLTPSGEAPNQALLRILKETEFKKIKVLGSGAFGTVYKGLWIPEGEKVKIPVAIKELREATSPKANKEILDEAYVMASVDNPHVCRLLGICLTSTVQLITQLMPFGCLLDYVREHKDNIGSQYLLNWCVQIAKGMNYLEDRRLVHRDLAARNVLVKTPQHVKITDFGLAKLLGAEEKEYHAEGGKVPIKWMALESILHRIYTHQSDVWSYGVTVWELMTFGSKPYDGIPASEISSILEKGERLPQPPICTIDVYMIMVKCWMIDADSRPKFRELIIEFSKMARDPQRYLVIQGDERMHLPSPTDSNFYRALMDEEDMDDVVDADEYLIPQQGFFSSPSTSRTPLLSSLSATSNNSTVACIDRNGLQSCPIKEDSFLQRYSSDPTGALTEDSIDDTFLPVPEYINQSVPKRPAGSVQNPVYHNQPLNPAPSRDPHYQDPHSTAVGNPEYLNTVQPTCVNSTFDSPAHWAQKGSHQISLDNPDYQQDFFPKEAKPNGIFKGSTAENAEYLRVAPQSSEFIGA

| Structure (SMILES) | IC50 (A431 [1]) [nM] | IC50 (NHEK) [nM] | IC50 (SKBR3 [2]) [nM] | IC50 (HTB161) [µg/mL] | IC50 (A27805) [µg/mL] | IC50 (A2780DDP) [µg/mL] | IC50 (MIP) [µg/mL] | IC50 (SW620; Table 4) [µg/mL] | IC50 (COLO205) [µg/mL] | IC50 (CX1) [µg/mL] | IC50 (CACO2) [µg/mL] | IC50 (HCT15) [µg/mL] | IC50 (LS174T) [µg/mL] | IC50 (SW948) [µg/mL] | IC50 (CCL228) [µg/mL] | IC50 (B7474) [µg/mL] | IC50 (T47D) [µg/mL] | IC50 (LX1) [µg/mL] | IC50 (A549) [µg/mL] | IC50 (LOX; Table 6) [µg/mL] | other results |
| --- | --- | --- | --- | --- | --- | --- | --- | --- | --- | --- | --- | --- | --- | --- | --- | --- | --- | --- | --- | --- | --- |
| CC#CC(=O)Nc1ccc2ncc(C#N)c(Nc3ccc(Br)c(Br)c3)c2c1 [Example 22, N-[4-[(3,4-dibromophenyl)amino]-3-cyano-6-quinolinyl]-2-butynamide] | 150 | 35 | > 50000 | 0.248 (≈ 0.512 µM) | 0.0567 (≈ 0.117 µM) | 0.211 (≈ 0.436 µM) | 0.378 (≈ 0.782 µM) | 0.526 (≈ 1.09 µM) | 4.3 (≈ 8.89 µM) | 0.775 (≈ 1.6 µM) | 0.475 (≈ 0.982 µM) | 0.372 (≈ 0.769 µM) | 0.847 (≈ 1.75 µM) | 0.593 (≈ 1.23 µM) | 0.255 (≈ 0.527 µM) | 0.314 (≈ 0.648 µM) | 0.704 (≈ 1.45 µM) | 0.81 (≈ 1.67 µM) | 0.375 (≈ 0.775 µM) | 0.0225 (≈ 0.0465 µM) | IC50 (NEU-3T3): > 50000 nM; IC50 (A431 [3]; Table 6): 0.0443 µg/mL (≈ 0.0915 µM); IC50 (NEC): 0.492 µg/mL (≈ 1.02 µM); IC50 (DU145): 0.265 µg/mL (≈ 0.548 µM); IC50 (PC3): 0.695 µg/mL (≈ 1.44 µM); IC50 (LNCAP): 0.722 µg/mL (≈ 1.49 µM); IC50 (HL60): 0.608 µg/mL (≈ 1.26 µM); IC50 (CCRF-CFM): 0.403 µg/mL (≈ 0.833 µM); IC50 [4]: 3000 nM |
| COc1cc2ncc(C#N)c(Nc3cccc(Br)c3)c2cc1OC [Example 31, 4-[(3-Bromophenyl)amino]-6,7-dimethoxy-3-quinolinecarbonitrile] | 200 | 3 | 25000 | 0.793 (≈ 2.06 µM) | 2.03 (≈ 5.28 µM) | 1.17 (≈ 3.03 µM) | 0.748 (≈ 1.95 µM) | 4.54 (≈ 11.8 µM) | 3.1 (≈ 8.06 µM) | 0.97 (≈ 2.52 µM) | 0.925 (≈ 2.41 µM) | 0.727 (≈ 1.89 µM) | 0.885 (≈ 2.3 µM) | 5.48 (≈ 14.3 µM) | 4.91 (≈ 12.8 µM) | 1.58 (≈ 4.1 µM) | 3.33 (≈ 8.67 µM) | 6.88 (≈ 17.9 µM) | 2.27 (≈ 5.91 µM) | 0.871 (≈ 2.27 µM) | IC50 (SW620; Table 8): 0.82 µg/mL (≈ 2.13 µM); IC50 (MCF7; Table 5): 5.66 µg/mL (≈ 14.7 µM); IC50 (MCF7; Table 8): 6.04 µg/mL (≈ 15.7 µM); IC50 (LOX; Table 8): 1.65 µg/mL (≈ 4.29 µM); IC50 (A431 [3]; Table 6): 0.434 µg/mL (≈ 1.13 µM); IC50 (A431 [3]; Table 8): 0.1 µg/mL (≈ 0.26 µM); IC50 (NEC): 2.23 µg/mL (≈ 5.81 µM); IC50 (DU145): 0.585 µg/mL (≈ 1.52 µM); IC50 (PC3): 5.16 µg/mL (≈ 13.4 µM); IC50 (LNCAP): 0.772 µg/mL (≈ 2.01 µM); IC50 (HL60): 0.894 µg/mL (≈ 2.33 µM); IC50 (CCRF-CFM): 3.19 µg/mL (≈ 8.3 µM); IC50 (SKBR3 [5]): 0.48 µg/mL (≈ 1.25 µM); IC50 [4]: 1.5 nM |
